The text below walks through data of ChEMBL document CHEMBL4837250, “Discovery of LYC-55716: A Potent, Selective, and Orally Bioavailable Retinoic Acid Receptor-Related Orphan Receptor-γ (RORγ) Agonist for Use in Treating Cancer” (J Med Chem, 2021).

Series [1] can be described thus: in vivo. To be noted: Sprague-Dawley, rat, po, at 30 to 300 mg/kg.
A short description of series [2]: in vivo. As to conditions: cynomolgus monkey, po, at 30 to 300 mg/kg.
The target in another series is CYP3A4 (Homo sapiens, UniProt P08684). Briefly: in vitro. As to conditions: probe testosterone.
CYP3A4, sequence (P08684 whole entry): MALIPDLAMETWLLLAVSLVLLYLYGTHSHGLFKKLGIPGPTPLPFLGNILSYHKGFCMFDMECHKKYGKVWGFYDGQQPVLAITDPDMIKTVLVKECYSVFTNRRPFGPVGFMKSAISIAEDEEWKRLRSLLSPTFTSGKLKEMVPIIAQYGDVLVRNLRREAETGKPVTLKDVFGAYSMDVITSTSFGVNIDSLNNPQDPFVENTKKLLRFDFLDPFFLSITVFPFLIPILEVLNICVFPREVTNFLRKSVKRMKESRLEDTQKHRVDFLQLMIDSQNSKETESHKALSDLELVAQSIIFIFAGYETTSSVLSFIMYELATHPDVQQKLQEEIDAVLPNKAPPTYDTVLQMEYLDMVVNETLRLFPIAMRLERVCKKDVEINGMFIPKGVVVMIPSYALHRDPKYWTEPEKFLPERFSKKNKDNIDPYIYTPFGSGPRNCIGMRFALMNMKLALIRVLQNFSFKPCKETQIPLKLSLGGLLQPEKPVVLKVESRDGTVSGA
For series [3], the target named is T1, Nuclear receptor ROR-beta (Homo sapiens, UniProt Q92753).
T1 sequence (Q92753 whole entry): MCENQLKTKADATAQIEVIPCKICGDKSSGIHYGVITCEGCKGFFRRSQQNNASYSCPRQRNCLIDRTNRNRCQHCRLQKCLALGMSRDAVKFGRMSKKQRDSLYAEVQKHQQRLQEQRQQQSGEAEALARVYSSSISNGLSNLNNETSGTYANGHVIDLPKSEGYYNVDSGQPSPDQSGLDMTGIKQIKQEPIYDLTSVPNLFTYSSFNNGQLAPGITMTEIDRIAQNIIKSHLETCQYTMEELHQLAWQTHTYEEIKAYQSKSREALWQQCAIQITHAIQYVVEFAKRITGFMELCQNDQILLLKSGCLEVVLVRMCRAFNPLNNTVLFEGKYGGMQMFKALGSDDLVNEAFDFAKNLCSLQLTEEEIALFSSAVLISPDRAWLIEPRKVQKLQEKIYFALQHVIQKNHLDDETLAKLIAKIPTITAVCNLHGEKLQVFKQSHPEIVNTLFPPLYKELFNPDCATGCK
Description: Agonist activity at RORbeta (unknown origin)

Series [4] can be described thus: in vivo. As to conditions: CD1, mouse, po, 10 mg/kg.
The next series deals with hERG (KCNH2) (Homo sapiens, UniProt Q12809). Put plainly: in vitro.
hERG (KCNH2), sequence (Q12809 whole entry): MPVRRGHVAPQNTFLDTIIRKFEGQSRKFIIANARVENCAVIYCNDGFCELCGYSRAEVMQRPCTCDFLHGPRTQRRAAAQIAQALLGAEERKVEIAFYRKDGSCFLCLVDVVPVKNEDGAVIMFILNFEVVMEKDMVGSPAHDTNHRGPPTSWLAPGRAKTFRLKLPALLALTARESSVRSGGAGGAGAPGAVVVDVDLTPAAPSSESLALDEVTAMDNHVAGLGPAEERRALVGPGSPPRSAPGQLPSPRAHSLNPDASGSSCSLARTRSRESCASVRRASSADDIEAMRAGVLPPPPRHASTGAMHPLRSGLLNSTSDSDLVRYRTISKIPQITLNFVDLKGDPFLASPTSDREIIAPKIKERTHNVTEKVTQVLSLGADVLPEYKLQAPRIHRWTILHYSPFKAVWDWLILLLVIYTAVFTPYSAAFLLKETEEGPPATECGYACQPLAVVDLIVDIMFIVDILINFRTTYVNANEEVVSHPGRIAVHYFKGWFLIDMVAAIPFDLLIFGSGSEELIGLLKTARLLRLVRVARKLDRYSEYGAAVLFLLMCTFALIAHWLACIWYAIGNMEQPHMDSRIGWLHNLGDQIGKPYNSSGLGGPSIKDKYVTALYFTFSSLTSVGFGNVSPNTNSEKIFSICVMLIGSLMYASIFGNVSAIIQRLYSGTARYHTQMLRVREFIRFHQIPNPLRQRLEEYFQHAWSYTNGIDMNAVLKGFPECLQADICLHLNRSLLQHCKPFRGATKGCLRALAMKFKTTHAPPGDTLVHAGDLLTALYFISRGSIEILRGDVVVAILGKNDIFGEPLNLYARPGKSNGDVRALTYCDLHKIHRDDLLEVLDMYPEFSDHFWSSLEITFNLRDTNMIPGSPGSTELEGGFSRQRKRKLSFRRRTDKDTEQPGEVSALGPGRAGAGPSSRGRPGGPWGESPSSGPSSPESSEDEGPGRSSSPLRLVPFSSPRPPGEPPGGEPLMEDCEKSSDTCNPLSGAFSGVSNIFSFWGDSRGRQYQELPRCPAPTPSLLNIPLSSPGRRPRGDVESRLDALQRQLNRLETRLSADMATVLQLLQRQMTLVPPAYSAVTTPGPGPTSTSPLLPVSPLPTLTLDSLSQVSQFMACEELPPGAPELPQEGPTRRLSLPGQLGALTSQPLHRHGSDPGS
Series [5] in a line: in vivo. To be noted: cynomolgus monkey, iv, 1 mg/kg.
Description: Volume of distribution in cynomolgus monkey rat at 1 mg/kg, iv
Series [6] is described as follows: in vivo. As to conditions: CD1, mouse, po, 10 mg/kg. This is another data set of the same source.
Description: Half life in CD1 mouse at 10 mg/kg, po
Series [7] is described as follows: in vitro. To be noted: mouse, plasma.
Description: Plasma protein binding in mouse
Series [8] can be described thus: in vivo. To be noted: Sprague-Dawley, rat, iv, 1 mg/kg.
Description: Half life in Sprague-Dawley rat at 1 mg/kg, iv
In series [9] the target is T2, Nuclear receptor ROR-alpha (Homo sapiens, UniProt P35398).
T2 sequence (P35398 whole entry): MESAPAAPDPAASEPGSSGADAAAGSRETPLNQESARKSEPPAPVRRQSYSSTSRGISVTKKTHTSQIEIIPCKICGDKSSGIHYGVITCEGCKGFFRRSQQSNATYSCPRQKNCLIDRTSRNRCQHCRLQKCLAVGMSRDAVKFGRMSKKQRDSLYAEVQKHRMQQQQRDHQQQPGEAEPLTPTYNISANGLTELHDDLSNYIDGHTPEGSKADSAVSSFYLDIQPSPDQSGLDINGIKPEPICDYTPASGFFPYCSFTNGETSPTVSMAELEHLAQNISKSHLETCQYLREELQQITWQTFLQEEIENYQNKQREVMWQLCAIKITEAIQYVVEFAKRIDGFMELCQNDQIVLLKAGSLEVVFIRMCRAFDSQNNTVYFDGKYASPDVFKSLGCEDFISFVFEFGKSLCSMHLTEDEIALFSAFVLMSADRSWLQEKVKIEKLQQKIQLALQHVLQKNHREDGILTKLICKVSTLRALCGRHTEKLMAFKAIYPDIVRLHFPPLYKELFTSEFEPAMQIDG
Description: Agonist activity at RORalpha (unknown origin)

In another series the target is CYP2D6 (Homo sapiens, UniProt P10635). Put plainly: in vitro. To be noted: probe testosterone.
CYP2D6, sequence (P10635 whole entry): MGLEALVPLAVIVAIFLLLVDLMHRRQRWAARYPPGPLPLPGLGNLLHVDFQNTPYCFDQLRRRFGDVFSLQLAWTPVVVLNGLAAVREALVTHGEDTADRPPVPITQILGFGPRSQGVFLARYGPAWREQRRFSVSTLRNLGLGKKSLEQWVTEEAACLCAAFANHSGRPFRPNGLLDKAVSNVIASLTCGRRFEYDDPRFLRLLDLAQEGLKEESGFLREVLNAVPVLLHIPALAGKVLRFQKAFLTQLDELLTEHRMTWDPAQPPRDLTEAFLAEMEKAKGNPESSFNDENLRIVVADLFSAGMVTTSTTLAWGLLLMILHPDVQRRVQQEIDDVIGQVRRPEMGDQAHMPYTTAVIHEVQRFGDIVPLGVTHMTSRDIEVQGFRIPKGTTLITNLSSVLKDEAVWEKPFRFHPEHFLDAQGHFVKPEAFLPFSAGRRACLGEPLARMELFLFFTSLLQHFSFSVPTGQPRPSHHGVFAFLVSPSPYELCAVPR
Series [10] in a line: in vivo. To be noted: Sprague-Dawley, rat, iv, 1 mg/kg. This is another data set of the same source.
Description: Volume of distribution in Sprague-Dawley rat at 1 mg/kg, iv
Series [11] is described as follows: in vivo. To be noted: CD1, mouse, po, 10 mg/kg. This is another data set of the same source.
The nature of another series: physchem. As to conditions: PBS buffer, pH 7.4.
A further series can be described thus: cells. As to conditions: Mus musculus, C57/BL6.
Series [12] is described as follows: in vitro. To be noted: human, plasma.
Description: Plasma protein binding in human
Series [13] in a line: in vivo. As to conditions: cynomolgus monkey, iv, 1 mg/kg. This is another data set of the same source.
Description: Half life in cynomolgus monkey rat at 1 mg/kg, iv
The next series deals with MC-38. Briefly: animal or person. As to conditions: Mus musculus, MC-38, po, 600 h, read-out: TGI.

SMILES strings stand for the structures. Values after ≈ are worked out from the molar mass of the structure shown.

Description for CYP2D6: Inhibition of CYP2D6 (unknown origin) assessed as oxidation of testosterone at 10 uM
Description for CYP3A4: Inhibition of CYP3A4 (unknown origin) assessed as oxidation of testosterone at 10 uM
Description for MC-38: Antitumor activity against mouse MC38 cells implanted in C57/BL6 mouse assessed as tumor growth inhibition at 30 mg/kg, po twice daily measured up to 25 days
Description for cells: In vivo agonist activity at RORgamma in C57/BL6 mouse assessed as plasma concentration required to increase RORgamma targeted gene expression in isolated thymocytes
Description for hERG (KCNH2): Inhibition of human ERG by patch-clamp assay
Description for physchem: Solubility of the compound in pH 7.4 PBS buffer

As a reminder, the bioavailability is dose-corrected exposure relative to a reference, in per cent. Lower therefore signals little systemic uptake. As usually defined, the inhibition is the relative decrease from the control value, in per cent. Usually EC50 stands for the midpoint of the concentration-response curve. A high value points to a less potent agent. In general, IC20 refers to the concentration needed for an effect of 20%. As usually defined, the Vd is a proportionality between amount in the body and measured concentration, not a real space. Low values mean little distribution into tissue, high ones wide distribution into tissue. The term half-life denotes how long it takes for the measured level to halve. Lower therefore signals fast loss. A word on the fraction unbound: it is the share of the substance not bound to proteins or other matrix. A word on the AUC(0-inf): it is total exposure, with the tail of the curve extrapolated. High values mean more exposure, low ones less exposure. By solubility is commonly meant how much of the substance goes into solution per volume. Take `CC(C)(C[C@H]1CN(S(=O)(=O)c2cccc(C(F)(F)F)c2)c2cc(-c3cc(F)cc(OC(F)F)c3)ccc2O1)C(=O)O` [CINTIRORGON]: the bioavailability in “in vivo [1]” was not below 100%; in “in vivo [2]” it was not below 100%; in the series “in vivo [4]”, 55%. The inhibition at 10 µM against CYP3A4 came to 9.5%; on CYP2D6, 6%. In addition, the results for the 50% effective concentration (EC50) (in series [3]; in series [9]; in “cells”) were more than 10 µM, more than 10 µM and 0.338 µM, respectively. Further, the IC20 at hERG (KCNH2) is more than 50 µM. Besides, the Vd in the series “in vivo [5]” is 1.42 L/kg; in “in vivo [10]”, 5.7 L/kg. In addition, the half-life in the series “in vivo [6]” is 4.31 h; in the series “in vivo [8]”, 2.8 h; in “in vivo [13]” it was 6.6 h. Also, the fraction unbound was 0.033 in the series “in vitro [7]” and 0.044 in the series “in vitro [12]”. In the series “in vivo [11]”, this molecule gave an AUC(0-inf) of 3240 ng·h/mL. This molecule had a solubility in “physchem” of 10 µM (≈ 6.04 µg/mL). For the same molecule, in the series on MC-38, the inhibition in vivo at 30 mg/kg came to 46%.
